Assay [1] concerns five human malignant mesothelioma cell lines (Ju77, Lo68, No36, One58, Sty51). Description: MTT assay, five mesothelioma cell lines. The class given is cell-based. The settings on record: range over five mesothelioma cell lines, 72 hours, read-out: IC50 (concentration required to reduce cell viability by 50%). The text has this:
(§1) A panel of five human malignant mesothelioma cell lines, established from the pleural fluid of patients with the disease. These cell lines, designed Ju77, Lo68, No36, One58 and Sty51 have been previously described (1). None of the patients from whom the cell lines were derived had been exposed to chemotherapeutic agents. Two cell lines were purchased from ATCC (Rockville, Md.) for use as controls: HT29—a human colon adenocarcinoma (ATCC HTB38) and A549—a human lung adenocarcinoma (ATCC CCL185). These cell lines are representative of tumours that are generally drug resistant but have shown some responses to newer chemotherapy agents.
(§2) Cells were maintained in RPMI-1640 containing 5% fetal calf serum (Life Technologies Inc., Melbourne), 5×10^−5 M 2-mercaptoethanol, 20 mM HEPES buffer, 100 IU benzylpenicillin/ml (CSL, Perth) and 50 μg gentamicin/ml (David Bull Laboratories, Melbourne), in water saturated air containing 5% CO2 at 37° C. This growth medium will henceforth be called RF-5. All cells were checked at 3 monthly intervals for Mycoplasma and remained negative to testing.
(§3) Drug sensitivities for each cell line were determined by use of the MTT (Sigma-Aldrich, NSW) assay modified from the method described by Mossman (2). […] Optical densities were determined using a SpectraMax 250 plate reader (Molecular Devices) at 570 nm. […]
In general terms: Tetrazolium assays rely on reduction of a dye to a coloured formazan, in cell work by metabolically active cells.

In assay [2] the test system is A549 human lung adenocarcinoma. Description: MTT assay, A549. Particulars: 72 hours, read-out: IC50 (concentration required to reduce cell viability by 50%). The class given is cell-based.
Text: as §1, §2, §3

Assay [3] concerns HT29 human colon adenocarcinoma. Put plainly: MTT assay, HT29. The class given is cell-based. The settings on record: HT-29, 72 hours, read-out: IC50 (concentration required to reduce cell viability by 50%).
Text: as §1, §2, §3

Assay [4] concerns NO36 mesothelioma cell line. Put plainly: MTT assay, NO36. It counts as cell-based, human.
Text: as §1, §2, §3

In assay [5] the test system is IL-6. Description: IL-6 ELISA of media from treated mesothelioma and control cells. The class given is cell-based, human. Particulars: for surge in IL-6 production: as the concentration of drug approached its IC50 value. The protocol: The IL-6 assay was performed using a human IL-6 ELISA kit (eBioscience, USA) according to the manufacturers protocol. Briefly ninety six well plates were incubated at room temperature overnight with 100 μL per well of monoclonal antihuman IL-6 antibody in coating buffer (0.1M Na2CO3/NaHCO3, pH 9.6). The plate was washed five times with PBS and then 200 μL of blocking buffer added to each well and incubated for one hour at room temperature. The plate was then washed five times in PBS with 0.005% Tween 20 (Sigma-Aldrich, NSW). 100 μL of each sample to be assayed was added to each well and also IL-6 standard solutions ranging from 0.6-400 pg/ml were used to generate a standard curve.
After a one hour incubation, the plate was washed as above and 100 μL of biotinylated-IL-6 antibody solution added for a further hour. Following further washes, 100 μL of streptavidin-HRP conjugate solution was added for 30 minutes and the plates washed. 100 μL of ABTS solution was added and following incubation for 30 minutes at 37° C., the plate was read at 405 nm on a SpectraMax 250 plate reader (Molecular Devices) and the concentration of IL-6 for each sample calculated from the standard curve.
Samples for use in the ELISA were prepared by seeding of cells in 96 well plates with or without chemotherapy as described previously. As in the previous experiments chemotherapy was added 24 hours after cell seeding. For cell lysis experiments 300 μl of distilled water was added to each well and lysis of cells was confirmed by visual inspection. Media from these assays was removed at the appropriate time and stored at −20° C. until the ELISA was performed. The concentration of IL-6 for each cell line represents the mean value generated from three separate experiments. The results from chemotherapy effects on IL-6 production are representative of two or more experiments.

In assay [6] the test system is IL-6. Particulars: mesothelioma cells, concentrations producing a 5-30% reduction in relative cell growth; reference 3; cited from earlier work.
The subject of assay [7] is mesothelioma and control cells. Description: MTT assay, drug toxicity in mesothelioma and control cells. Particulars: all cell lines. It counts as cell-based, human.
Text: as §1, §2, §3

Structures are written as SMILES. In brackets after ≈: the same amount, converted by molar mass.

A word on the viability: it is a per cent measure of how many cells are alive, often set against a control. A higher viability goes with better survival. For `Nc1ccn([C@@H]2O[C@H](CO)[C@@H](O)C2(F)F)c(=O)n1` [gemcitabine], the IC50 is 0.8 to 5 ng/mL (≈ 3.04 to 19 nM) in assay [1], 1.75 ng/mL (≈ 6.65 nM) in assay [2] and 6.7 ng/mL (≈ 25.5 nM) in assay [3]. The molecule further registered a viability at 0.01 µg/mL in assay [4] (Homo sapiens, NO36 cells at 10 ng/ml) of 50%. In addition, the “concentration at which cell death reaches a plateau” value in assay [4] (NO36 cells, MTT) was “approximately 3 ng/ml”. In addition, in the assay on IL-6 [5], the “surge in IL-6 production” value was “a surge in IL-6 production was measured”. Also, the “change in IL-6 concentration relative to untreated cells” value in the assay on IL-6 [6] was “decrease in the IL-6 concentration by up to one half”.
Regarding `CC(=O)O[C@@]12CO[C@@H]1C[C@H](O)[C@@]1(C)C(=O)[C@H](O)C3=C(C)[C@@H](OC(=O)[C@H](O)[C@@H](NC(=O)OC(C)(C)C)c4ccccc4)C[C@@](O)([C@@H](OC(=O)c4ccccc4)[C@H]21)C3(C)C` [docetaxel, Docetaxel], the IC50 in assay [1] was 4.7 to 7.6 ng/mL (≈ 5.82 to 9.41 nM); in assay [2] it was 5.4 ng/mL (≈ 6.68 nM); in assay [3], 2 ng/mL (≈ 2.48 nM). Besides, in assay [7], the “shape of dose response curve” value is recorded as “plateau effect is clear for all cell lines”. In addition, the “surge in IL-6 production” value in the assay on IL-6 [5] is on record as “a surge in IL-6 production was measured”. For the same molecule, the “IL-6 production compared to untreated cells” value in the assay with IL-6 [5] (concentrations below the IC50) is “did not effect IL-6 production”.

The values above are taken from patent US20050090453A1, “Methods of modulating IL-6” (SOLBEC PHARMACEUTICALS CO., LTD., priority 2003, published 2005).
